PubChem BioAssay AID2831 (Southern Research Specialized Biocontainment Screening …, 2010)
The source made the active and inactive calls.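 Rule for the calls: active = inhibition over 29.93%, a cutoff 3 SD above the screen mean, later confirmed by dose response; inconclusive = over the cutoff but never tested in dose response; inactive = the rest.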

How the values were obtained:
[1] = test system: S. Typhimurium PhoP-regulated promoter-GFP reporter, fluorescence, 4 h; test: decrease of PhoP-driven GFP reporter signal, S. Typhimurium, dose response, PhoP regulon inhibitor project, purified and synthesized compounds, set 2 (AID 2831)
[2] = as above; details: S. Typhimurium PhoP-regulated promoter-GFP reporter, fluorescence, 4 h; at 150 µM (top of the series)

SMILES	IC50 [1] [µM]	inhibition [2]
O=C(O)c1cn(-c2ccc(F)cc2)c2cc(Cl)c(F)cc2c1=O	< 0.15	
S=C(NCc1ccc(Cl)cc1)Nc1cccc(Cl)c1	58.8	
COc1ccc(NC(=S)NCc2ccc(Cl)cc2)cc1		1.77% (inactive)
O=C(Nc1cccnc1)c1cc(Br)c(Br)s1	< 0.15	
O=C1C2=C(Nc3ccccc3SC2c2ccc(C(F)(F)F)cc2)c2ccccc21 (stereo unspecified)		-14.5% (inactive)
O=C(Nc1ccc(Br)cc1)N1CCCN(Cc2ccccc2F)C1		-62.1% (inactive)
COc1cccc(NC(=S)NCc2ccc(Cl)cc2)c1		2.44% (inactive)
O=C(Nc1ccccc1Cl)N1CCCN(Cc2ccccc2F)C1		-64.3% (inactive)
CCn1cc(C(=O)O)c(=O)c2cc(F)c(N3CCN(C(=S)NC(=O)c4ccccc4F)CC3)cc21	106	
COc1ccccc1NC(=O)N1CCCN(Cc2ccccc2F)C1		13.8% (inactive)
CCOc1ccc(NC(=S)N2CCN(c3cc4c(cc3F)c(=O)c(C(=O)O)cn4CC)CC2)cc1	2.03	
COc1ccc(NC(=O)c2cc(Br)c(Br)s2)cn1	< 0.15	
O=C1C2=C(Nc3ccccc3SC2c2ccc(I)cc2)c2ccccc21 (stereo unspecified)	133	
COc1cccc(C2Sc3ccccc3NC3=C2C(=O)c2ccccc23)c1 (stereo unspecified)	76.8	
O=C(Nc1ccc(Cl)cc1)N1CCCN(Cc2ccc(F)cc2)C1		-86.3% (inactive)
COc1c(N2CCN(C(=S)NCc3ccccc3)C(C)C2)c(F)cc2c(=O)c(C(=O)O)cn(C3CC3)c12 (stereo unspecified)	85.5	
CCCCn1c(NS(=O)(=O)c2ccc(C)cc2)c(S(=O)(=O)c2ccccc2)c2nc3ccccc3nc21	< 0.15	
COc1ccccc1Nc1nc(NCc2ccco2)c2ccccc2n1	< 0.15	
CCn1cc(C(=O)O)c(=O)c2cc(F)c(N3CCN(C(=S)Nc4ccc(Cl)cc4)CC3)cc21		-15% (inactive)
CN1CCc2nc(SCC(=O)Nc3cccc(F)c3)c(C#N)c(-c3cccs3)c2C1	< 0.15	
CCn1cc(C(=O)O)c(=O)c2cc(F)c(N3CCN(C(=S)Nc4ccccc4Cl)CC3)cc21	46.5	
C1=C(CCNc2ncnc3c2[nH]c2ccccc23)CCCC1	< 0.15	
CCn1cc(C(=O)O)c(=O)c2cc(F)c(N3CCN(C(=S)NC)CC3)cc21		-22.9% (inactive)
CCn1cc(C(=O)O)c(=O)c2cc(F)c(N3CCN(C(=S)Nc4ccccc4C)CC3)cc21	27.9	
S=C(NCc1ccccc1Cl)Nc1ccncc1	146	
CCCCCNC(=O)c1cn(CC)c2cc(N3CCN(C)CC3)c(F)cc2c1=O	< 0.15	

SMILES	IC50 [1] [µM]	inhibition [2]
S=C(NCc1ccc(Cl)cc1)Nc1ccncc1	76.6	
Cc1ccc(CN2CCCN(C(=O)Nc3ccc(Cl)cc3)C2)cc1		17.3% (inactive)
O=C1c2ccccc2C2=Nc3ccccc3SC(c3ccccc3F)C12 (stereo unspecified)	< 0.15	
O=C(Nc1ccccc1)N1CCCN(Cc2ccc(F)cc2)C1		-3.43% (inactive)
O=S(=O)(Nc1c(S(=O)(=O)c2ccccc2)c2nc3ccccc3nc2n1C1CCCCC1)c1ccccc1	< 0.15	
Cc1ccc(Nc2cc(C)c3c(O)cccc3n2)cc1C	112	
N#C/C(=C\c1ccc[nH]1)C(=O)NC1CC1	< 0.15	
S=C(NCc1ccc(Cl)cc1)Nc1cccnc1		-84.8% (inactive)
Cc1ccc(NC(=S)NCc2ccc(Cl)cc2)cc1		26.1% (inactive)
O=C(NCc1ccccc1)N1CCCN(Cc2ccccc2F)C1		-78.3% (inactive)
O=C1C2=C(Nc3ccccc3SC2c2ccccc2Br)c2ccccc21 (stereo unspecified)	88.3	
O=c1c2ccccc2[nH]c2ccc(F)cc12	< 0.15	
CCn1cc(C(=O)O)c(=O)c2cc(F)c(N3CCN(C(=S)NCc4ccccc4)CC3)cc21		-0.39% (inactive)
O=[N+]([O-])c1ccc(CNC2CCCc3ccccc32)cc1 (stereo unspecified)	69.1	
O=C1C2=C(Nc3ccccc3SC2c2ccccc2C(F)(F)F)c2ccccc21 (stereo unspecified)		-23.8% (inactive)
CN(C)CCCN(C(=O)CCc1ccccc1)c1nc2ccc(Cl)cc2s1	< 0.15	
O=C1C2=C(Nc3ccccc3SC2c2ccsc2)c2ccccc21 (stereo unspecified)		7.75% (inactive)
CCn1cc(C(=O)O)c(=O)c2cc(F)c(N3CCN(C(=S)Nc4ccccc4C(F)(F)F)CC3)cc21	3.79	
O=C1C2=C(Nc3ccccc3SC2c2ccccc2Cl)c2ccccc21 (stereo unspecified)	141	
CCn1cc(C(=O)O)c(=O)c2cc(F)c(N3CCN(C(=S)NC(=O)c4ccccc4Cl)CC3)cc21	42.6	
Cc1cccc(NC(=S)NCc2ccc(Cl)cc2)c1		18.9% (inactive)
Fc1ccccc1NC(=S)NCc1ccc(Cl)cc1		-10.3% (inactive)
S=C(NCc1ccc(Cl)cc1)Nc1ccc(Br)cc1		-3.88% (inactive)
O=C(Nc1ccccc1)N1CCCN(Cc2ccccc2F)C1		-140% (inactive)
CCCCn1c(NS(=O)(=O)c2ccccc2)c(S(=O)(=O)c2ccc(C)cc2)c2nc3ccccc3nc21	< 0.15	
